{"source": "patent US20250109120A1", "about": "“INDOLINE DERIVATIVES FOR TREATMENT AND/OR PREVENTION OF TUMOR OR CELL PROLIFERATIVE AND FIBROSIS DISEASES” (NATIONAL TAIWAN UNIVERSITY, priority 2023, published 2025)", "key": {"[1]": {"tested_on": "PC-3 cells", "test": "PC-3 SCID mouse model", "assay_type": "in vivo, mice", "conditions": "oral, 50 mg/kg q.d., 31 days", "experimental": "PC-3 cells (1×10^7 cells) were injected subcutaneously into the flanks of 7-week-old male SCID mice and treated with vehicle or compound k (50 mg/kg) q.d. for 31 days. […] Tumors were excised from each mouse after a 31-day treatment. […] The length is represented by the scale bar as indicated.\nThe cells were incubated in lysis buffer for 10 min at 4° C., scraped off, incubated on ice for an additional 10 min and then centrifuged at 17,000 g for 30 min at 4° C. Protein samples were electrophoresed on SDS-PAGE gels, transferred to PVDF membranes and blocked with 5% fat-free milk in PBS for 30 min at room temperature. Immunoblotting was performed overnight with primary antibodies in PBS at 4° C., followed by incubation with HRP-conjugated secondary antibodies for 1 h at room temperature. Bound antibodies will be measured using an ECL reagent and exposed to a photographic film. In the immunoprecipitation assay, cell lysates were immunoprecipitated with 1 μg of antibody and A/G agarose beads overnight at 4° C. After washing the precipitated beads three times with 1 mL ice-cold cell lysis buffer, bound immune complexes were separated by 10% SDS-PAGE and analyzed with immunoblotting.\nTissue sections underwent dewaxing and rehydration. Antigen retrieval was performed by autoclaving the slides in Trilogy solution (Cell Marque, Hot Springs, AR) at 121° C. for 10 min. The slides were blocked with 3% H2O2 and 5% fetal bovine serum, incubated with primary antibodies at 4° C. overnight, and then treated with polymer-HRP reagent (Dako Cytomation, Glostrup, Denmark). activity Peroxidase was visualized using diamino-benzidine tetrahydrochloride solution (DAKO), and sections were counterstained with hematoxylin. Dark brown nuclear staining was defined as positive, no staining was defined as negative."}, "[2]": {"target": "CDK8 (Homo sapiens (Human), UniProt P49336)", "sequence (P49336 whole entry, looked up)": "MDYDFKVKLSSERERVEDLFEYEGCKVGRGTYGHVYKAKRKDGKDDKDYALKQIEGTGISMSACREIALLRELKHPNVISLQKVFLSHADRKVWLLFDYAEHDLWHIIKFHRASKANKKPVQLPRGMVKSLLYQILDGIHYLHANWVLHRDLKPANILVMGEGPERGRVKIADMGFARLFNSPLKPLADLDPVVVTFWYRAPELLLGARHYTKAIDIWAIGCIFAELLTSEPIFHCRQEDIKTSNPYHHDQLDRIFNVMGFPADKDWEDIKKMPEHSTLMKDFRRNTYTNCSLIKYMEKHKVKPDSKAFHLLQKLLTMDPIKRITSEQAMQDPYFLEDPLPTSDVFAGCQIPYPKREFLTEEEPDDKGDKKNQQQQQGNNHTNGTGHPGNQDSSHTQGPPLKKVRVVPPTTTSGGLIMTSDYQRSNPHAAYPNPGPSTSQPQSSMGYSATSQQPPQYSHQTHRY", "sequence (P24863 whole entry partner, looked up)": "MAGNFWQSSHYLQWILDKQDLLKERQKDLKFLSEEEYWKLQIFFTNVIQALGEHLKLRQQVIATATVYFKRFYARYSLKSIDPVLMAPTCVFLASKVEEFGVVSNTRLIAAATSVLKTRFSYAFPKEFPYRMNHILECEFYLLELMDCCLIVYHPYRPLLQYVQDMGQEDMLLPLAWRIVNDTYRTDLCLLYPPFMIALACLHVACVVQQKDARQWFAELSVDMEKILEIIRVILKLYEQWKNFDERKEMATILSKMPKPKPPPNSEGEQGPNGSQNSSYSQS", "test": "LanthaScreen Eu Binding Assay, Thermo Fisher SelectScreen kinase service", "experimental": "Compounds were tested for kinase inhibitory activity using the Thermo Fisher SelectScreen service (www.thermofisher.com/selectscreen). For CDK8, the LanthaScreen Eu Binding Assay was used. Briefly, the assay employed utilizes a fluorescent tracer to a given kinase. This is used to detect the addition of an anti-tag antibody. When the tracer and antibody bind to the targeted kinase, the Forster resonance energy transfer is measured. When a kinase inhibitor is added to the assay, the tracer/kinase binding will be disrupted, producing low FRET detection and indicating kinase inhibitory activity. Evaluation of kinase activity of additional kinase targets utilized the LanthaScreen binding assay or the Z′-Lyte activity assay provided by Thermo Fisher SelectScreen service. The IC50 values were determined using sequential doses, and the inhibition curves were provided by Thermo Fisher Scientific.\nThe fragment-based drug design strategy in this study led to optimized CDK8 inhibitors with promising results. CDK8-inhibitory activities of the compounds (a-n) designed by this fragment-based drug design strategy were tested using the SelectScreen kinase service of ThermoFisher Scientific. The inhibitory effects of the 14 compounds and the referenced compound were tested at a concentration of 10 μM."}, "[3]": {"tested_on": "A549 cells", "test": "TGF-β1-induced EMT protein expression, western blot", "assay_type": "cell-based, human", "conditions": "test compounds 2 μM, senexin A 5 μM, pirfenidone 1 mM; TGF-β1 10 ng/mL", "experimental": "FIGS. 4A-4B show the inhibition of epithelial-to-mesenchymal transition protein expressions by CDK8 inhibitors in human alveolar epithelial cells. […] Cell lysates were subjected to a Western blot analysis using the indicated antibodies. Results are shown as the mean t SEM from three independent experiments. *p<0.05, and ***p<0.001 compared to the control group; #p<0.05, ##p<0.01, and ###p<0.001 compared to the TGF-β1-treated group. […] Cell viabilities were determined by an MTT assay. Results are shown as the mean t SEM of three independent experiments.\nCells (106) were incubated for 10 min at 4° C. in lysis buffer (20 mM HEPES at pH 7.4, 2 mM EGTA, 50 mM β-glycerophosphate, 0.1% Triton X-100, 10% glycerol, 1 mM DTT, 1 μg/mL of leupeptin, 5 μg/mL of aprotinin, 1 mM phenylmethylsulfonyl fluoride, and 1 mM sodium orthovanadate), scraped off, incubated on ice for an additional 10 min, and centrifuged at 17,000 g for 30 min at 4° C. Protein samples (20 μg) were then electrophoresed on SDS-polyacrylamide gel electrophoresis (PAGE) gels and transferred to a nitrocellulose membrane, which was then blocked by incubation for 30 min at room temperature with 5% bovine serum albumin (BSA) in Tris-buffered saline with 0.1% Tween-20 (TBST). Immunoblotting was performed by overnight incubation at 4° C. with primary antibodies in TBST, followed by incubation for 1 h at room temperature with horseradish peroxidase (HRP)-conjugated secondary antibodies. Bound antibodies were measured using enhanced chemiluminescence (ECL) reagent (GE Healthcare, UK) and exposed to photographic film."}, "[4]": {"tested_on": "A549 cells", "test": "TGF-β1-induced oxidative stress (MDA, Nox4)", "assay_type": "cell-based, human", "conditions": "compounds 2 μM, TGF-β1 10 ng/ml 24 h", "experimental": "A549 cells were incubated with compounds k, b, a (2 μM), senexin A (5 μM), or pirfenidone (1 mM) for 1 h, followed by treatment with 10 ng/ml TGF-β1 for a further 24 h. Malondialdehyde (MDA) (FIG. 10A) and Nox4 (FIG. 10B) levels were detected. ***p<0.001 compared to the control group; #p<0.05, ##p<0.01, and ###p<0.001 compared to the TGF-β1-treated group.\nAn end product of lipid peroxidation, malondialdehyde (MDA), was measured by spectrophotometry at a wavelength of 532 nm using malondialdehyde bis(dimethyl acetal) as the standard as per the assay protocol (Cell Biolabs, USA)."}, "[5]": {"tested_on": "DU145 cells", "test": "TGF-β1-induced morphology change and wound migration", "assay_type": "cell-based, human", "conditions": "TGF-β1 10 ng/mL", "experimental": "Images of the morphology of cells were taken at ×100 magnification. […] The cells were incubated with or without TGF-β1 (10 ng/mL) and compound k (2.5 and 10 μM), allowed to migrate into the wound area for 48 h and photographed. Cell migration into the wound was quantified using ImageJ software; the white solid line indicates time zero. The quantitative assessment of the mean number of cells in the scratch area is expressed as the mean t SEM from at least three independent experiments (***p<0.001 vs. control group; ##p<0.01 and ###p<0.001 vs. TGF-β1 treatment group). (C) PC-3 cells were incubated with 10 μM compound k/senexin A for 1 h, subsequently treated with TGF-β1 (10 ng/mL) for 24 h and incubated with the indicated antibodies and DAPI. The immunofluorescence images were photographed by a ZEISS ApoTome.2 microscope. Images were taken at 600× magnification."}}, "data": [{"compound": "CNC(=O)c1cc(Oc2ccc(NS(=O)(=O)c3ccc4c(c3)C(=C(C)C)C(=O)N4)c(F)c2)ccn1", "note": "[Compound k, 4-(3-Fluoro-4-((2-oxo-3-(propan-2-ylidene)indoline)-5-sulfonamido)phenoxy)-N-methylpicolinamide]", "values": [{"measurement": "binding of CDK8 and p-Smad3 (Thr179), tumor immunoprecipitation", "setting": "[1]", "result": "markedly inhibited"}, {"measurement": "body weight changes", "setting": "[1]", "result": "no apparent body weight changes"}, {"measurement": "expression of EMT proteins, α-SMA, p-Smad3 (Thr179), active β-catenin, p-STAT1 Ser727 in tumor immunoblots", "setting": "[1]", "result": "markedly inhibited"}, {"measurement": "interaction of CDK8 and MED12, tumor immunoprecipitation", "setting": "[1]", "result": "did not affect"}, {"measurement": "tumor margin, H&E staining", "setting": "[1]", "result": "distinct boundary"}, {"measurement": "vimentin, N-cadherin and Snail levels, IHC staining of tumors", "setting": "[1]", "result": "significantly decreased"}, {"measurement": "CDK8 inhibition percentage", "setting": "[2]; 150 nM, 54-kinase panel", "result": 64, "unit": "%"}, {"measurement": "CDK8 Inhibition percentage at 10 μM", "setting": "[2]; 10 μM", "result": 102, "unit": "%"}, {"measurement": "IC50", "setting": "[2]; read-out: Inhibition of CDK8 IC50", "result": 129, "unit": "nM"}, {"measurement": "higher inhibitory potency compared to compound j", "setting": "[2]; vs compound j", "result": "~1.5", "unit": "fold"}, {"measurement": "increase in CDK8 inhibitory activity compared to E966-0530", "setting": "[2]; vs original compound E966-0530", "result": 13, "unit": "fold"}, {"measurement": "TGF-β1-triggered EMT protein expressions", "setting": "[3]", "result": "significant inhibition"}, {"measurement": "TGF-β1-caused oxidative stress (MDA and Nox4 levels)", "setting": "[4]", "result": "markedly reduced"}, {"measurement": "TGF-β1-induced migration (wound closure)", "setting": "[5]; 2.5 and 10 μM, 48 h", "result": "significantly inhibited"}, {"measurement": "TGF-β1-induced morphological transition", "setting": "[5]; 24 h", "result": "appeared to reverse these effects"}]}]}
